From patent publication US20250084035A1, “POLYMORPHIC FORM OF MEISOINDIGO AND MODIFIED FORMULATION OF MEISOINDIGO” (STATIA BIOPHARMA INC., priority 2018, published 2025)

Legend:
[1] = Solubility in solvents (descriptive); format: physicochemical
ulcerative colitis = assay: Clinical trial in ulcerative colitis; format: in vivo, humans; conditions: recent clinical trial
leukemia cells = conditions: cited from earlier work
[2] = Particle size and distribution, Malvern Mastersizer 2000; format: physicochemical; conditions: for Particle size d10 / Particle size d50 / Particle size d90: Crystal Form I, Malvern Mastersizer 2000; for Particle Size Distribution Ratio: calculated as (d90-d10)/d50
Method: Crystal Form I was analyzed for its particle size and distribution. Five batches were tested using a Malvern Mastersizer 2000 (MIIA14730, Malvern, UK).

Solubility ([1]; in acetone) | Solubility ([1]; in chloroform) | Solubility ([1]; in ethanol) | Solubility ([1]; in water) | Particle size d10 [2] [μm] | Particle size d50 [2] [μm] | Particle size d90 [2] [μm] | Particle Size Distribution Ratio [2] | Structure (SMILES) | Efficacy against ulcerative colitis (ulcerative colitis) | Side effects (ulcerative colitis) | Cell cycle effect (leukemia cells; leukemia cells) | Expression of oncogene c-myb (leukemia cells; leukemia cells) | Cell growth (leukemia cells; low concentrations, without a decrease in cell viability)
– | – | – | – | 3.599 | 13.301 | 26.897 | 1.75 | CN1C(=O)/C(=C2/C(=O)Nc3ccccc32)c2ccccc21 [NAT-1201, N-methylisoindigo] | – | – | – | – | –
– | – | – | – | 5.035 | 15.603 | 30.339 | 1.62 | CN1C(=O)/C(=C2/C(=O)Nc3ccccc32)c2ccccc21 [NAT-1202, N-methylisoindigo] | – | – | – | – | –
– | – | – | – | 5.295 | 15.674 | 30.015 | 1.58 | CN1C(=O)/C(=C2/C(=O)Nc3ccccc32)c2ccccc21 [NAT-1203, N-methylisoindigo] | – | – | – | – | –

More lines, now with the values behind:

Structure (SMILES) | Solubility ([1]; in acetone) | Solubility ([1]; in chloroform) | Solubility ([1]; in ethanol) | Solubility ([1]; in water) | Particle size d10 [2] [μm] | Particle size d50 [2] [μm] | Particle size d90 [2] [μm] | Particle Size Distribution Ratio [2] | Efficacy against ulcerative colitis (ulcerative colitis) | Side effects (ulcerative colitis) | Cell cycle effect (leukemia cells; leukemia cells) | Expression of oncogene c-myb (leukemia cells; leukemia cells) | Cell growth (leukemia cells; low concentrations, without a decrease in cell viability)
CN1C(=O)/C(=C2/C(=O)Nc3ccccc32)c2ccccc21 [N-methylisoindigo] | sparingly soluble | sparingly soluble | sparingly soluble | slightly soluble | – | – | – | – | very effective | no significant side effects | arrests leukemia cells at G phase | inhibits | completely inhibited
CN1C(=O)/C(=C2/C(=O)Nc3ccccc32)c2ccccc21 [NAT-0601, N-methylisoindigo] | – | – | – | – | 2.506 | 12.464 | 25.635 | 1.86 | – | – | – | – | –
CN1C(=O)/C(=C2/C(=O)Nc3ccccc32)c2ccccc21 [NAT-0801, N-methylisoindigo] | – | – | – | – | 3.249 | 12.268 | 23.99 | 1.69 | – | – | – | – | –
